Reference: patent US12264156B2, “Compounds and pharmaceutical compositions thereof for the treatment of diseases” (GALAPAGOS NV, priority 2018, dated 2025)
pIC50: −log10 of the molar value.

Experiments:
Type in all cases: biochemical
Conditions in all cases: ADP-Glo SIK kinase assay
[1] = target: T1, SIK3 (Homo sapiens, UniProt Q9Y2K2); test: ADP-Glo kinase assay, SIK3
T1 construct: purchased SignalChem S12-11G-100
Outline: (§1)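 ADP-Glo luminescent assay of ADP formed by SIK2 or SIK3 with substrate after ATP addition, 120 min at RT. Remaining ATP depleted 40 min, then ADP converted to ATP and read by luciferase luminescence after 30 min. Controls: 1% DMSO and 10 μM staurosporine (final).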

[2] = target: T2, SIK2 (Homo sapiens, UniProt Q9H0K1); test: ADP-Glo kinase assay, SIK2
T2 construct: purchased ThermoFisher Scientific PV4792
T2 sequence (Q9H0K1 whole entry): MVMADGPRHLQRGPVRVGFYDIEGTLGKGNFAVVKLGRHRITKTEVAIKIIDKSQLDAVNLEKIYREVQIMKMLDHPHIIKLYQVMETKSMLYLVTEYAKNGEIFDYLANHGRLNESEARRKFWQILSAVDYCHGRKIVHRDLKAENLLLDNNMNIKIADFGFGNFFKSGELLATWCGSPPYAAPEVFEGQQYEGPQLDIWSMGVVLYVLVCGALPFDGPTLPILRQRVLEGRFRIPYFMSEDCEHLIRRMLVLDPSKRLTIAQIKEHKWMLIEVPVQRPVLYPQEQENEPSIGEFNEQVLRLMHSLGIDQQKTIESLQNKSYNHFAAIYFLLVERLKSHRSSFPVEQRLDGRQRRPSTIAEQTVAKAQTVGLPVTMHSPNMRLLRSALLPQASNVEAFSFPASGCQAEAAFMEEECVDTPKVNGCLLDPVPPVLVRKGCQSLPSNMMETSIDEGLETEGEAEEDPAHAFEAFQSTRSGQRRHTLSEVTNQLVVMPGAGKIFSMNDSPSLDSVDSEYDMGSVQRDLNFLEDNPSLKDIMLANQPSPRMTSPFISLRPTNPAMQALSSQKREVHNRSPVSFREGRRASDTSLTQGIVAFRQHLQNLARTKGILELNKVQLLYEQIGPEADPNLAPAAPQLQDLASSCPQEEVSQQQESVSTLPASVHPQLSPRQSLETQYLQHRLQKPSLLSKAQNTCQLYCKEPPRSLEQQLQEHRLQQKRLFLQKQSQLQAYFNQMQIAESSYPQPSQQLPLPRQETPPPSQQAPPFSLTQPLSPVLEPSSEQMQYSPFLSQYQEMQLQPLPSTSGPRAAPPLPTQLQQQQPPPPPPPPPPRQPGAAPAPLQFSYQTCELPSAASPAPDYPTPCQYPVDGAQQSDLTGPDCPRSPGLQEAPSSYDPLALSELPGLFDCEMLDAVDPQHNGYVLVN
Outline: as §1

[3] = target: T3, SIK1 (Homo sapiens, UniProt P57059); test: ADP-Glo kinase assay, SIK1
T3 construct: purchased Carna Biosciences 02-131
T3 sequence (P57059 whole entry): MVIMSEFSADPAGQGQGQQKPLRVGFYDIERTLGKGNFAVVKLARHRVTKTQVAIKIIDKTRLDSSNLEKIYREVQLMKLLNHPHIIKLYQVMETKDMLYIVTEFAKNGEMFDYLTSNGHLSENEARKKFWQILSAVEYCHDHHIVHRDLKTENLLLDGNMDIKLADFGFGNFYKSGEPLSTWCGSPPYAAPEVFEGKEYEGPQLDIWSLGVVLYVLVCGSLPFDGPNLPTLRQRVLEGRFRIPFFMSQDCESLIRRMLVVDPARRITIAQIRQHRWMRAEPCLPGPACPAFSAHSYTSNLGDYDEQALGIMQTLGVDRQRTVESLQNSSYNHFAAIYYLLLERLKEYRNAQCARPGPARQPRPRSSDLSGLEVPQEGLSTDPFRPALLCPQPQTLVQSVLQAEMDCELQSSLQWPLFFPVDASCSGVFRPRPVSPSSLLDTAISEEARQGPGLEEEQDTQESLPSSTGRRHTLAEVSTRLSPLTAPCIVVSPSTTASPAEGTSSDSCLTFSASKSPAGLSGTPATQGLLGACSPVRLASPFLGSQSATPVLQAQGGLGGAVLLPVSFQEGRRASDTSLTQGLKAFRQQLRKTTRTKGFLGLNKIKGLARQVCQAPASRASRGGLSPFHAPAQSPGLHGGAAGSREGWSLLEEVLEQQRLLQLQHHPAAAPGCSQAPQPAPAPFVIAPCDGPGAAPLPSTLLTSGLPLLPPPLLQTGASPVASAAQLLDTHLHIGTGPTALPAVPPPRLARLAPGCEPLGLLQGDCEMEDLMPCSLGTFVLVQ
Outline: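 Wells with 1% DMSO or 10 μM staurosporine (final) define the control window. The kinase reaction with substrate and ATP runs 120 min at RT, followed by ADP-Glo detection: ATP depletion (40 min) and ADP-derived luminescence (30 min).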

T1 sequence (Q9Y2K2 whole entry): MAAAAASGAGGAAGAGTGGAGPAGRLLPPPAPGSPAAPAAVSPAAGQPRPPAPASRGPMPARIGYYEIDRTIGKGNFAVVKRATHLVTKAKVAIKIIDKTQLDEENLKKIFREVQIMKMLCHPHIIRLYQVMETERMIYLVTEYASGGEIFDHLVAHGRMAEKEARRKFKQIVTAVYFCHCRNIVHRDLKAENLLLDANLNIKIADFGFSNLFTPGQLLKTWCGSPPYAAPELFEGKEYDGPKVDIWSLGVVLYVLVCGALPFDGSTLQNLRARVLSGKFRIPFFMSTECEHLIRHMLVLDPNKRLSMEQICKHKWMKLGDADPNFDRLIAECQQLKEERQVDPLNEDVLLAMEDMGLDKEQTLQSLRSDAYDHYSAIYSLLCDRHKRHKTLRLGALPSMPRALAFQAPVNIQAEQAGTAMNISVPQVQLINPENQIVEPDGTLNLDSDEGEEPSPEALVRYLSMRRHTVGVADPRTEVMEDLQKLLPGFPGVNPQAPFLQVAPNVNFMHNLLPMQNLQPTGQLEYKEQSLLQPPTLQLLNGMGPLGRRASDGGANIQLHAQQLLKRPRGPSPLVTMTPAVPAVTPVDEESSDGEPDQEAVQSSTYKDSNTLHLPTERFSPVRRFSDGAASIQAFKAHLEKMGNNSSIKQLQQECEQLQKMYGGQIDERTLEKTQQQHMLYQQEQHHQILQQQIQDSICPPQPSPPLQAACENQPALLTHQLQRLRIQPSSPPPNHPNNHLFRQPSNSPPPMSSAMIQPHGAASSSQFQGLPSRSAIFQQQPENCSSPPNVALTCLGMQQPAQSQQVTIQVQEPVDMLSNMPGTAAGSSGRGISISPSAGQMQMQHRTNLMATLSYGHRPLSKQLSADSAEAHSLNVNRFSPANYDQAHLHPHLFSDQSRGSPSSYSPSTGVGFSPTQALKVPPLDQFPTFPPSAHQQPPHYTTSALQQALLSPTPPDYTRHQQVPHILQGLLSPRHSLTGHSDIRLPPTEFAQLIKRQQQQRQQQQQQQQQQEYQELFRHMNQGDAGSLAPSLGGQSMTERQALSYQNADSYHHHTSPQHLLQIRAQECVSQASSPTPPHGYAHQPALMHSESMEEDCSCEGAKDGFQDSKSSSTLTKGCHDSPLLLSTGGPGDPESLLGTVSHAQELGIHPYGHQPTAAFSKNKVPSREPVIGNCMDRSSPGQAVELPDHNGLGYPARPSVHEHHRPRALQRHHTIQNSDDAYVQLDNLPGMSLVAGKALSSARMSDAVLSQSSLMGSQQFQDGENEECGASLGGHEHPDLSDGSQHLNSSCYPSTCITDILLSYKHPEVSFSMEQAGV

| Compound | pIC50 [1] | pIC50 [2] | pIC50 [3] |
| --- | --- | --- | --- |
| COc1cc(-c2cnc3cc(OCCN4C5CCC4COC5)ccn23)cc2c1C(=O)N(CC(F)(F)F)CC2 [compound 246, 8-methoxy-6-[7-[2-(3-oxa-8-azabicyclo[3.2.1]octan-8-yl)ethoxy]imidazo[1,2-a]pyridin-3-yl]-2-(2,2,2-trifluoroethyl)-3,4-dihydroisoquinolin-1-one] | 7.00 to 8.00 | 8.00 to 11.00 | 6.30 to 7.00 |
| COc1cc(-c2cnc3cc(OC[C@H]4COCCO4)ccn23)cnc1C(=O)NCC(F)(F)F [compound 265, 5-[7-[[(2R)-1,4-dioxan-2-yl]methoxy]imidazo[1,2-a]pyridin-3-yl]-3-methoxy-N-(2,2,2-trifluoroethyl)pyridine-2-carboxamide] | 6.30 to 7.00 | 6.30 to 7.00 | < 6.30 |
| COc1cc(-c2cnc3cc(OCC4CCCN4C4COC4)ccn23)cc(OC(F)F)c1C(=O)NC1CC1 (stereo not drawn) [compound 289, N-cyclopropyl-2-(difluoromethoxy)-6-methoxy-4-[7-[[1-(oxetan-3-yl)pyrrolidin-2-yl]methoxy]imidazo[1,2-a]pyridin-3-yl]benzamide] | 8.00 to 11.00 | 7.00 to 8.00 | 7.00 to 8.00 |
| COc1cc(-c2cnc3cc(OCCN4C(C)CCCC4C)ccn23)cc(OC(F)F)c1C(=O)NC1CC1 (stereo not drawn) [compound 294, N-cyclopropyl-2-(difluoromethoxy)-4-[7-[2-(2,6-dimethyl-1-piperidyl)ethoxy]imidazo [1,2-a]pyridin-3-yl]-6-methoxy-benzamide] | 8.00 to 11.00 | 8.00 to 11.00 | 7.00 to 8.00 |
| COc1cc(-c2cnc3cc(OCCCN4CCOCC45COC5)ccn23)cc(OC(F)F)c1C(=O)NC1CC1 [compound 296, N-cyclopropyl-2-(difluoromethoxy)-4-[7-[3-(2,8-dioxa-5-azaspiro[3.5]nonan-5-yl)propoxy]imidazo[1,2-a]pyridin-3-yl]-6-methoxy-benzamide] | 8.00 to 11.00 | 8.00 to 11.00 | 7.00 to 8.00 |

Further lines, results first:

| pIC50 [1] | pIC50 [2] | pIC50 [3] | Compound |
| --- | --- | --- | --- |
| 8.00 to 11.00 | 7.00 to 8.00 | 6.30 to 7.00 | COc1cc(-c2cnc3cc(OCC4(C)CN(C(=O)OC(C)(C)C)C4)ccn23)cc2c1C(=O)N(CC(F)(F)F)CC2 [compound 249, tert-butyl 3-[[3-[8-methoxy-1-oxo-2-(2,2,2-trifluoroethyl)-3,4-dihydroisoquinolin-6-yl]imidazo[1,2-a]pyridin-7-yl]oxymethyl]-3-methyl-azetidine-1-carboxylate] |
| 8.00 to 11.00 | 8.00 to 11.00 | 6.30 to 7.00 | COc1cc(-c2cnc3cc(OCC4(F)CNC4)ccn23)cc2c1C(=O)N(CC(F)(F)F)CC2 [compound 250, 6-[7-[(3-fluoroazetidin-3-yl)methoxy]imidazo[1,2-a]pyridin-3-yl]-8-methoxy-2-(2,2,2-trifluoroethyl)-3,4-dihydro isoquinolin-1-one] |
| 7.00 to 8.00 | 6.30 to 7.00 | < 6.30 | COc1cc(-c2cnc3cc(OCc4ccnn4C)ccn23)cnc1C(=O)NCC(F)(F)F [compound 262, 3-methoxy-5-[7-[(2-methylpyrazol-3-yl)methoxy]imidazo[1,2-a]pyridin-3-yl]-N-(2,2,2-trifluoroethyl)pyridine-2-carboxamide] |
| 8.00 to 11.00 | 7.00 to 8.00 | 7.00 to 8.00 | COc1cc(-c2cnc3cc(OCC4CCCCN4CC#N)ccn23)cc(OC(F)F)c1C(=O)NC1CC1 (stereo not drawn) [compound 269, 4-[7-[[1-(cyanomethyl)-2-piperidyl]methoxy]imidazo [1,2-a]pyridin-3-yl]-N-cyclopropyl-2-(difluoromethoxy)-6-methoxy-benzamide] |
| 8.00 to 11.00 | 8.00 to 11.00 | 6.30 to 7.00 | COc1cc(-c2cnc3cc(OCC4CCCN4C(C)C)ccn23)cc(OC(F)F)c1C(=O)NC1CC1 (stereo not drawn) [compound 295, N-cyclopropyl-2-(difluoromethoxy)-4-[7-[(1-isopropylpyrrolidin-2-yl)methoxy]imidazo[1,2-a]pyridin-3-yl]-6-methoxy-benzamide] |
